Counter-ions that a name gives are not always drawn.

The target of this test is T1, h5-HT5A receptor (Homo sapiens, UniProt P47898).
T1 construct: expressed in transfected cells; host or cells: HEK293
T1 sequence (P47898 whole entry): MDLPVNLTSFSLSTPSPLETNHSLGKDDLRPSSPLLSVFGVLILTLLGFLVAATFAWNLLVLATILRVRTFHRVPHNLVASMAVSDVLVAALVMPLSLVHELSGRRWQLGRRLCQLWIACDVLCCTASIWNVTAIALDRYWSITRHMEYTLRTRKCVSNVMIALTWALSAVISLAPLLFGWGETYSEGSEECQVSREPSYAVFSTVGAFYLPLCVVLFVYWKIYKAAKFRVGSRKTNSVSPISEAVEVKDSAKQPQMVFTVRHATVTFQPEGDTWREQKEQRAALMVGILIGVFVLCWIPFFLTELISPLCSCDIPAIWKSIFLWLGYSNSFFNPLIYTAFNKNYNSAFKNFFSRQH
Description: [3H]5-CT binding assay h5-HT5A. To be noted: membranes from HEK293 cells expressing h5-HT5A, 2.5 nM [3H]5-CT; read-out: Binding affinity 5-HT5A (Ki). Put shortly: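 Membranes from HEK293 cells stably expressing h5-HT5A incubated with 2.5 nM [3H]5-CT and compound in 100 mM Tris-HCl pH 7.7, 1 mM EDTA, 75 min at 30° C. Nonspecific binding with 10 μM methiothepine; filtration and scintillation counting give Ki or IC50.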
For the molecule `COc1cccc(OC)c1CNC(=N)Nc1nc(-c2ccccc2)ns1` [Example 105, N′-(2,6-dimethoxybenzyl)-N-(3-phenyl-1,2,4-thiadiazole-5-yl)guanidine×0.5 (2E)-But-2-endioate], the Ki (in general, a dissociation constant, usually derived from enzyme kinetics or from competition with a known ligand) is above 500 nM.

Consider `COc1ccccc1CN=C(N)Nc1nc(-c2ccccc2)ns1` [Example 106, N″-(2-methoxybenzyl)-N-(3-phenyl-1,2,4-thiadiazole-5-yl)guanidine (2E)-But-2-endioate], for which the Ki is above 500 nM.

In the case of `COc1cccc(OC)c1CNC(=N)Nc1nc(-c2ccc(C(F)(F)F)cc2)cs1` [Example 107, N-(2,6-dimethoxybenzyl)-N′-{4-[4-(trifluoromethyl)phenyl]-1,3-thiazole-2-yl}guanidine], the Ki is 50 to 500 nM.

Turning to `COc1cccc(OC)c1CNC(=N)Nc1nc(-c2cccc(C(F)(F)F)c2)cs1` [Example 108, N-(2,6-dimethoxybenzyl)-N′-{4-[3-(trifluoromethyl)phenyl]-1,3-thiazole-2-yl}guanidine], the Ki was above 500 nM.

In the case of `COc1cccc(OC)c1CNC(=N)Nc1nc(-c2ccc(OC(F)F)cc2)cs1` [Example 109, N-{4-[4-(difluoromethoxy)phenyl]-1,3-thiazole-2-yl}-N′-(2,6-dimethoxybenzyl)guanidine hydrobromide], the Ki was 50 to 500 nM.

Regarding `COc1cccc(OC)c1CNC(=N)Nc1nc(-c2ccc(N(C)C)cc2)cs1` [Example 110, N-(2,6-dimethoxybenzyl)-N′-{4-[4-(dimethylamino)phenyl]-1,3-thiazole-2-yl}guanidine hydrobromide], the Ki was below 50 nM.

Turning to `COc1cc(F)ccc1-c1csc(NC(=N)NCc2c(OC)cccc2OC)n1` [Example 111, N-(2,6-dimethoxybenzyl)-N′-[4-(4-fluoro-2-methoxyphenyl)-1,3-thiazole-2-yl]guanidine], the inhibitory constant (Ki) is below 50 nM.

Consider `COc1ccc(F)cc1-c1csc(NC(=N)NCc2c(OC)cccc2OC)n1` [Example 112, hydrobromide], for which the Ki is below 50 nM.

Turning to `COc1cccc(OC)c1CNC(=N)Nc1nc(-c2c(OC)cccc2OC)cs1` [Example 113, N-(2,6-dimethoxybenzyl)-N′-[4-(2,6-dimethoxyphenyl)-1,3-thiazole-2-yl]guanidine], the Ki was below 50 nM.

Consider `COc1cccc(OC)c1CNC(=N)Nc1nc(-c2ccc(F)c3ccccc23)cs1` [Example 114, N-(2,6-dimethoxybenzyl)-N′-[4-(4-fluoro-1-naphthyl)-1,3-thiazole-2-yl]guanidine], for which the Ki is below 50 nM.

`COc1cccc(OC)c1CNC(=N)Nc1nc(-c2ccc3c(c2)CCO3)cs1` [Example 115, N-[4-(2,3-dihydro-1-benzofuran-5-yl)-1,3-thiazole-2-yl]-N′-(2,6-dimethoxybenzyl)guanidine]: the Ki was below 50 nM.

For the molecule `COc1cccc(OC)c1CNC(=N)Nc1nc(-c2ccc(F)cc2Cl)cs1` [Example 116, N-[4-(2-chloro-4-fluorophenyl)-1,3-thiazole-2-yl]-N′-(2,6-dimethoxybenzyl)guanidine], the Ki is below 50 nM.

On to `COc1cccc(OC)c1CNC(=N)Nc1nc(-c2ccco2)cs1` [Example 117, N-(2,6-dimethoxybenzyl)-N′-[4-(2-furyl)-1,3-thiazole-2-yl]guanidine hydrobromide], for which the inhibition constant (Ki) is below 50 nM.

Take `COc1cccc(OC)c1CNC(=N)Nc1nc(-c2ccc(F)cc2)c(C)s1` [Example 118, N-(2,6-dimethoxybenzyl)-N′-[4-(4-fluorophenyl)-5-methyl-1,3-thiazole-2-yl]guanidine]: the Ki is below 50 nM.

As for `COc1cccc(OC)c1CNC(=N)Nc1nc(-c2c(Cl)cccc2Cl)cs1` [Example 119, N-[4-(2,6-dichlorophenyl)-1,3-thiazole-2-yl]-N′-(2,6-dimethoxybenzyl)guanidine], the Ki is below 50 nM.

Take `COc1cccc(OC)c1CNC(=N)Nc1nc(C2CCCN2C(=O)OC(C)(C)C)cs1` (centres unmarked) [Example 120, tert-butyl 2-(2-{[[(2,6-dimethoxybenzyl)amino](imino)methyl]amino}-1,3-thiazole-4-yl)pyrrolidine-1-carboxylate]: the Ki was in the range of 50 to 500 nM.

With `COc1cccc(OC)c1CNC(=N)Nc1nc(-c2cc(C)cs2)cs1` [Example 121, N-(2,6-dimethoxybenzyl)-N′-[4-(4-methyl-2-thienyl)-1,3-thiazole-2-yl]guanidine], the Ki was below 50 nM.

Consider `COc1cccc(OC)c1CNC(=N)Nc1nc(-c2ncccn2)cs1` [Example 122, N-(2,6-dimethoxybenzyl)-N′-(4-pyrimidine-2-yl-1,3-thiazole-2-yl)guanidine hydrobromide], for which the Ki is below 50 nM.

`COc1cccc(OC)c1CNC(=N)Nc1nc(-c2ccc(Cl)cn2)cs1` [Example 123, N-[4-(5-chloropyridine-2-yl)-1,3-thiazole-2-yl]-N′-(2,6-dimethoxybenzyl)guanidine acetate]: the inhibitory constant (Ki) was below 50 nM.

As for `COc1cccc(OC)c1CNC(=N)Nc1nc(-c2cc(Cl)cs2)cs1` [Example 124, N-[4-(4-chloro-2-thienyl)-1,3-thiazole-2-yl]-N′-(2,6-dimethoxybenzyl)guanidine], the inhibitory constant (Ki) is below 50 nM.

In the case of `COc1cccc(OC)c1CNC(=N)Nc1nc(CNC(=O)OC(C)(C)C)cs1` [Example 125, tert-butyl [(2-{[[(2,6-dimethoxybenzyl)amino](imino)methyl]amino}-1,3-thiazole-4-yl)methyl]carbamate], the inhibition constant (Ki) was below 50 nM.

As to `COc1cccc(OC)c1CNC(=N)Nc1nc(-c2ncc(Cl)cc2Cl)cs1` [Example 126, N-[4-(3,5-dichloropyridine-2-yl)-1,3-thiazole-2-yl]-N′-(2,6-dimethoxybenzyl)guanidine], the Ki was below 50 nM.

In the case of `COc1cccc(OC)c1CNC(=N)Nc1nc2c(s1)CCc1ccccc1-2` [Example 127, N-(4,5-dihydronaphtho[1,2-d][1,3]thiazole-2-yl)-N′-(2,6-dimethoxybenzyl)guanidine], the Ki was below 50 nM.

With `COc1cccc(OC)c1CNC(=N)Nc1ncc(-c2ccc(F)cc2)s1` [Example 128, N-(2,6-dimethoxybenzyl)-N′-[5-(4-fluorophenyl)-1,3-thiazole-2-yl]guanidine], the Ki is below 50 nM.

`COc1ccc(F)cc1CNC(=N)Nc1nc(-c2ccccc2)cs1` [Example 129, N-(5-fluoro-2-methoxybenzyl)-N′-(4-phenyl-1,3-thiazole-2-yl)guanidine]: the inhibitory constant (Ki) was 50 to 500 nM.

Consider `COc1ccc(F)cc1CNC(=N)Nc1nc(C)cs1` [Example 130, N-(5-fluoro-2-methoxybenzyl)-N′-(4-methyl-1,3-thiazole-2-yl)guanidine fumarate], for which the Ki was 50 to 500 nM.

`COc1cccc(OC)c1CNC(=N)Nc1nc(C(C)C)cs1` [Example 131, N-(2,6-dimethoxybenzyl)-N′-(4-isopropyl-1,3-thiazole-2-yl)guanidine]: the Ki was below 50 nM.

Turning to `COc1cccc(Cl)c1CNC(=N)Nc1nc(-c2ccccc2)cs1` [Example 132, N-(2-chloro-6-methoxybenzyl)-N′-(4-phenyl-1,3-thiazole-2-yl)guanidine], the Ki was below 50 nM.

For the molecule `COc1cccc(Cl)c1CNC(=N)Nc1nc(-c2ccccn2)cs1` [Example 133, N-(2-chloro-6-methoxybenzyl)-N′-(4-pyridine-2-yl-1,3-thiazole-2-yl)guanidine], the inhibition constant Ki was below 50 nM.

These data come from US8481576B2 (Abbott GmbH & Co. KG, priority 2004, dated 2013).
